Data taken from ChEMBL document CHEMBL2073793, “An in vitro evaluation of human cytochrome P450 3A4 and P-glycoprotein inhibition by garlic” (J Pharm Pharm Sci, 2001).

Target: ATP-dependent translocase ABCB1 (Homo sapiens, UniProt P08183)
Assay: TP_TRANSPORTER: ATP hydrolysis GENTEST
Format: functional

ATP-dependent translocase ABCB1, sequence (P08183 whole entry): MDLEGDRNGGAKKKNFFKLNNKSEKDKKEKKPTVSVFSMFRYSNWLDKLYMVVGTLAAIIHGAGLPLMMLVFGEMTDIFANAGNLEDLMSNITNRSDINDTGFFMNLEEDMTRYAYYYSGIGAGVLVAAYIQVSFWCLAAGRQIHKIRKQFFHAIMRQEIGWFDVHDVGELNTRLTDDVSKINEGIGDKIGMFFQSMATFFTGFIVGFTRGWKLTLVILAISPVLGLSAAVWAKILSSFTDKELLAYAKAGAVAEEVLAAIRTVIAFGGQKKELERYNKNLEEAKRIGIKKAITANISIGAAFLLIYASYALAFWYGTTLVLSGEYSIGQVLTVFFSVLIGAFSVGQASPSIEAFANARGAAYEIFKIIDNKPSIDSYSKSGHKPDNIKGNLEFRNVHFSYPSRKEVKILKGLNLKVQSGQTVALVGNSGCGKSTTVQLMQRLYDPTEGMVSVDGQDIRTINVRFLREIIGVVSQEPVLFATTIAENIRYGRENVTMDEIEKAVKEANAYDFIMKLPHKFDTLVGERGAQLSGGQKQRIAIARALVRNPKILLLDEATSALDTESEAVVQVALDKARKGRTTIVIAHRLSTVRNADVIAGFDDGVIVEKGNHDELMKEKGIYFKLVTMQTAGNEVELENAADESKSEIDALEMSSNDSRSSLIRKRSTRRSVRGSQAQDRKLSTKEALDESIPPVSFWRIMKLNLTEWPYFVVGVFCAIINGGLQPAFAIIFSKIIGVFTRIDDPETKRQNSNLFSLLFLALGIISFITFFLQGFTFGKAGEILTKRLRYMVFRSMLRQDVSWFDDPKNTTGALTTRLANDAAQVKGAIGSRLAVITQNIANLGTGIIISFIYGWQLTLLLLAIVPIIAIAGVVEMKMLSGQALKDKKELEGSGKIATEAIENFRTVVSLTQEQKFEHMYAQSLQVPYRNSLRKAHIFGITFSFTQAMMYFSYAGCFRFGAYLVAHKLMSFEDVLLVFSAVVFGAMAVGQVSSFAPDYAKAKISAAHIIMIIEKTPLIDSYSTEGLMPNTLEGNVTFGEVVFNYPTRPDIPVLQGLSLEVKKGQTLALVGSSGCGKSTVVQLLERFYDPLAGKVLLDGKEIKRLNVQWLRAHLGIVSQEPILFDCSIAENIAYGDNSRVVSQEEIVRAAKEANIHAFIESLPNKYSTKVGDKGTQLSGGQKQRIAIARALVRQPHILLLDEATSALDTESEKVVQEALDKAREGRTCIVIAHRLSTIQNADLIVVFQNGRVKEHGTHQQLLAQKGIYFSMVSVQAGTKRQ

With GARLIC the Activity was “substrate [+]”.
